Source: patent US20050085447A1, “Pyrido[3,4-d]pyrimidine derivatives as matrix metalloproteinase-13 inhibitors” (Warner-Lambert Company LLC, priority 2003, published 2005)

Target: T1, MMP-3 catalytic domain (Homo sapiens, UniProt P08254)
T1 construct: MMP-1 full-length, MMP-3 catalytic domain, MMP-7 full-length
Test: Thiopeptolide substrate hydrolysis inhibition assay, MMP-3 catalytic domain
Format: biochemical
Settings: MES buffer pH 6.0, read-out: MMP-3CD IC50
Excerpt: The assay methods of Biological Examples 1-4 measure the amount by which a test compound reduces the hydrolysis of a thiopeptolide substrate catalyzed by a matrix metalloproteinase enzyme or catalytic domain thereof. It has been shown previously by Ye Qi-Zhuang, Hupe D., and Johnson L. (Current Medicinal Chemistry, 1996;3:407-418) that inhibitor activity against a catalytic domain of an MMP is predictive of the inhibitor activity against the respective full-length MMP enzyme. The methods described below for the inhibition of MMP-13 may also be adapted and used to determine the ability of the compounds of Formula I to inhibit other matrix metalloproteases such as MMP-1, MMP-2, MMP-3, MMP-7, MMP-8, MMP-9, MMP-12, MMP-14, MMP-17, and the like.
Thiopeptolide substrates show virtually no decomposition or hydrolysis at or below neutral pH in the absence of a matrix metalloproteinase enzyme. A typical thiopeptolide substrate commonly utilized for assays is Ac-Pro-Leu-Gly-thioester-Leu-Leu-Gly-OEt. A 100 μL assay mixture will contain 50 mM of N-2-hydroxyethylpiperazine-N′-2-ethanesulfonic acid buffer (“HEPES,” pH 7.0), 10 mM CaCl2, 100 μM thiopeptolide substrate, and 1 mM 5,5′-dithio-bis-(2-nitro-benzoic acid) (DTNB). […] The change in absorbance at 405 nm is monitored on a Thermo Max microplate reader (molecular Devices, Menlo Park, Calif.) at room temperature (22° C.). The calculation of the amount of hydrolysis of the thiopeptolide substrate is based on E412=13600 M^−1 cm^−1 for the DTNB-derived product 3-carboxy-4-nitrothiophenoxide. Assays are carried out with and without matrix metalloproteinase inhibitor compounds, and the amount of hydrolysis is compared for a determination of inhibitory activity of the test compounds.
Test compounds were evaluated at various concentrations in order to determine their respective IC50 values, the micromolar concentration of compound required to cause a 50% inhibition of catalytic activity of the respective enzyme.
It should be appreciated that the assay buffer used with MMP-3CD was 50 mM N-morpholinoethane sulfonate (“MES”) at pH 6.0 rather than the HEPES buffer at pH 7.0 described above.
Some representative compounds of Formula I have been evaluated for their ability to inhibit MMP-13, MMP-1FL, MMP-3CD, MMP-7FL, MMP-8FL, MMP-9FL, MMP-12CD, MMP-14CD, and/or MMP-17CD, wherein FL means full-length enzyme and CD means a catalytic domain of the full-length enzyme. Test compounds can be evaluated at various concentrations in order to determine their respective IC50 values, the micromolar concentration of compound required to cause a 50% inhibition of the hydrolytic activity of the respective enzyme.
Certain compounds of Formula I have also been assayed with MMP-1 full-length, MMP-3 catalytic domain, MMP-7 full-length, MMP-8 full-length, MMP-9 full-length, MMP-12 catalytic domain, MMP-14 catalytic domain, and MMP-17 catalytic domain. […] In Biological Table 2, the compound example numbers for the Compound Examples are indicated in the column labelled “Ex. No.”

T1 sequence (P08254 100-272 limits assumed): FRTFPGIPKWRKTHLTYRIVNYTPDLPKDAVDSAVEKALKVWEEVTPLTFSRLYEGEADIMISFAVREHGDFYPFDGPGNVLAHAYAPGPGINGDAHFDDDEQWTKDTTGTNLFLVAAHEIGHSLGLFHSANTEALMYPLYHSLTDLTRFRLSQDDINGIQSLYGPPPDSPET

SMILES: COc1ccc(CNC(=O)c2cc3c(=O)n(Cc4ccc(C(=O)O)cc4)cnc3cn2)cc1 [Compound Example 1, 4-[6-(4-methoxy-benzylcarbamoyl)-4-oxo-4H-pyrido[3,4-d]pyrimidin-3-ylmethyl]-benzoic acid]
- IC50: 26 µM
